Where two headings read alike, the source gives them in different places.
Assays:
[1] = biological target: AMPKα2β1γ1 Thr172 dephosphorylation by PP2Cα (Homo sapiens, UniProt P54619+P54646); test: Phosphatase protection assay (PP2Cα); assay type: biochemical; settings: incubation with PP2Cα; 1–10 μM
Procedure: Figure 2 C2 Is a Partial Agonist of α2 Complexes and Selectively Protects α1 Complexes against Dephosphorylation by PP2C (A and B) Recombinant AMPKα1β1γ1 (A) or AMPKα2β1γ1 (B) was assayed in the presence of AMP (30 μM) and increasing concentrations of C2 (0–20 μM). Results are expressed as fold increase in activity relative to controls without ligand and represent the mean ± SD for three independent experiments. (C and D) The effects of C2 and AMP on dephosphorylation and inactivation of AMPKα1β1γ1 (C) and α2β1γ1 (D) by PP2Cα (present in all assay conditions). Results are expressed as a percentage of control reactions performed in the absence of Mg^2+ and represent the mean ± SD of three independent experiments. Representative blots of pT172 and total AMPKα are shown below the bar charts. (E) AMPKα1β1γ2 WT (open bars) and mutant complexes (β1 ΔCBD [β1 Δ1–185], gray bars, and γ2 R531G, black bars) were purified from COS1 cells by transient overexpression of the indicated constructs, as described in Methods, and assayed in the presence of the indicated compounds under standard conditions. Results are expressed as the fold increase in activity relative to controls in the absence of compound and represent the mean ± SD for three independent experiments.
AMPKα1β1γ1 or α2β1γ1 was dephosphorylated in vitro with PP2Cα in 50 mM HEPES pH 7.4, 10 mM MgCl2, 0.1 mM EGTA, 0.03% BRIJ-35, 1 mM DTT, and the indicated compounds for 15 min at 30°C. Mg^2+ was omitted from the negative control. Reactions were terminated by 20-fold dilution and storage on ice. AMPK activity was assayed under standard conditions in the presence of saturating AMP (200 μM). The results are expressed as percentage activity of the negative control. In control experiments, PP2Cα activity was determined in reactions containing 50 mM TES pH 7.4, 0.1 mM EGTA, 25 mM MgCl2, 0.01% BRIJ-35, 0.02% (v/v) 2-mercaptoethanol, and 100 μM EFLR(pT)SCGS (168–176 AMPKα2). Liberated phosphate was determined using malachite green ([Baykov et al., 1988]).

[2] = set-up: method as in Gómez-Galeno et al., 2010; settings: 100 μM for up to 6 hr; ref Gómez-Galeno et al., 2010; cited from earlier work
[3] = system: primary mouse hepatocytes (WT); test: Lipid synthesis, [1-14C]acetate incorporation; assay type: cell-based; settings: for IC50: Mus musculus, Hepatocyte
Procedure: (§1) Figure 5 C13 Inhibits Lipid Synthesis and Fatty Acid Esterification in Mouse Hepatocytes in an AMPK-Dependent Manner (A) Mouse hepatocytes were treated with the indicated concentrations of C13 and labeled with [1-^14C]acetate for 3 hr. A769662 (100 μM) and AICAR (0.5 mM) were included as positive controls. Rates of fatty acid and sterol synthesis were estimated by incorporation into saponifiable and nonsaponifiable lipids. Results are expressed as the mean acetate incorporated in micromoles per gram-hour ± SD and are representative of two independent experiments. (B) Mouse hepatocytes were treated with the indicated compounds for 30 min and labeled with media containing 0.5 mM palmitic acid (1 mCi⋅mmol^−1 [9,10-^3H]palmitic acid) for an additional 60 min. Incorporation into triglyceride was determined as described in Experimental Procedures and results are expressed as palmitate incorporated in micromoles per gram-hour ± SD and are representative of three independent experiments. (C and D) Mouse hepatocytes from WT or AMPK-null (AMPKα1^−/− -α2^−/−) mice were incubated with the indicated concentrations of C13 and labeled with [1-^14C]acetate for 3 hr. Rates of fatty acid and sterol synthesis were estimated from incorporation into saponifiable (C) and nonsaponifiable (D) lipids. Results are expressed as percentage WT vehicle and represent the mean ± SD for three independent experiments. (E) Hepatocytes were treated with the indicated concentrations of C13 for 3 hr, and lysates were blotted with the indicated antibodies.
Lipid synthesis was determined by labeling adherent cultures of primary hepatocytes with [1-^14C]acetate. After overnight culture, hepatocytes (5 × 10^5) were washed with warm PBS and allowed to rest for 3 hr in fresh M199. Cells were treated with vehicle (0.1% DMSO) or the indicated compounds and labeled with 1 mCi⋅mmol^−1 [1-^14C]acetate for 3 hr. Cells were washed with ice-cold PBS, gently scraped into 0.5 ml PBS and saponified in methanolic KOH at 80°C for 1 hr. Nonsaponifiable and saponifiable lipids were extracted with petroleum ether before and after acidification with HCl. Lipid fractions were washed with 5% HAc, dried using N2, and dissolved in scintillant for the determination of [^14C] incorporation. Lipogenesis in hepatocytes from AMPKβ1/β2-KO mice was determined in media containing [^3H]acetate (0.2 mCi⋅mmol^−1). After 4 hr labeling, total lipids were extracted using the method of [Bligh and Dyer (1959)], and incorporated [^3H] was determined by scintillation counting. The results are expressed as micromoles acetate incorporated per gram-hour.

[4] = system: primary mouse hepatocytes; test: Fatty acid esterification, [3H]palmitic acid incorporation into triglycerides; assay type: cell-based; settings: 30 min treatment, then 60 min labeling
Procedure: as §1, with “(C and D) Mouse hepatocytes from WT or AMPK-null (AMPKα1^−/− -α2^−/−) mice were incubated with the indicated concentrations of C13 and labeled with [1-^14C]acetate for 3 hr. Rates of fatty acid and sterol synthesis were estimated from incorporation into saponifiable (C) and nonsaponifiable (D) lipids.” left out, “(E) Hepatocytes were treated with the indicated concentrations of C13 for 3 hr, and lysates were blotted with the indicated antibodies.” left out
Fatty acid esterification was determined by labeling primary hepatocytes with [9,10-^3H(N)]palmitate. […] Lipids were stained with iodine vapor and triglyceride eluted from TLC scrapings with 1:1 ethanol:Triton X-100, and the incorporation of [^3H] was determined by scintillation counting.

Chain of AMPKα2β1γ1 Thr172 dephosphorylation by PP2Cα (P54646 whole entry): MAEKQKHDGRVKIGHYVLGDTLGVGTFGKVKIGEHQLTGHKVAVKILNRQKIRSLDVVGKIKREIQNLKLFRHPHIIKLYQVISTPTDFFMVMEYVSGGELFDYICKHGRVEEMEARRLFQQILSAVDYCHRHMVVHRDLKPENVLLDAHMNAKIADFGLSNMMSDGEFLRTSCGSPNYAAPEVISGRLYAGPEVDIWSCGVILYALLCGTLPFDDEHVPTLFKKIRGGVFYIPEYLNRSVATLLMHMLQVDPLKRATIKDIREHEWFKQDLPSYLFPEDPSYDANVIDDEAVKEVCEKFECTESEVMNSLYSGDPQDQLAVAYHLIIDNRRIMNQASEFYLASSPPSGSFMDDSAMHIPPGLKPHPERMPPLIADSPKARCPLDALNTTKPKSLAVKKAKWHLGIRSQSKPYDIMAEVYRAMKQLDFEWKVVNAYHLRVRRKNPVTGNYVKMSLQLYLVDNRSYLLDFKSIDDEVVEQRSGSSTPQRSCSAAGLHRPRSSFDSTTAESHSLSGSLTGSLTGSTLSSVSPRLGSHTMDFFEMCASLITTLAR
Chain of AMPKα2β1γ1 Thr172 dephosphorylation by PP2Cα (Q9Y478 whole entry partner): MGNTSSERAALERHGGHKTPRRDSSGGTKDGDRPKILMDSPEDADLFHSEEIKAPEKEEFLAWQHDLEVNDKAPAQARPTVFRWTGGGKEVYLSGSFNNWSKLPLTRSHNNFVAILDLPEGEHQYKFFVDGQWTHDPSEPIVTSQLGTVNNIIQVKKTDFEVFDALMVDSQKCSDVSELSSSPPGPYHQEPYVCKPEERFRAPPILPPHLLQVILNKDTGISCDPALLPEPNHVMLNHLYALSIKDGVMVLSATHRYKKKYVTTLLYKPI
Chain of AMPKα2β1γ1 Thr172 dephosphorylation by PP2Cα (P54619 whole entry): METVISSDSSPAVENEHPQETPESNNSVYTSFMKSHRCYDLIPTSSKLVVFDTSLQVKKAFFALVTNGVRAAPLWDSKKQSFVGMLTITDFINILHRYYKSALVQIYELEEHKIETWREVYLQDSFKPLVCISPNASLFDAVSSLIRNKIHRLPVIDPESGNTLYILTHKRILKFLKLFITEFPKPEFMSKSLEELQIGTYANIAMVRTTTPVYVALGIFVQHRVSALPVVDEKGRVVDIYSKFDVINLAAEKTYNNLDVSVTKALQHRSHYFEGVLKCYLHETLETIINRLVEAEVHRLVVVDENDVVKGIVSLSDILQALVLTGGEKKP

| Compound | effect on dephosphorylation [1] | cellular accumulation [2] | reduction of lipid synthesis ([3]; 1 μM, WT cells) | IC50 ([3]; [14C]acetate, 3 hr, read-out: IC50, inhibition of lipid synthesis, nonsaponifiable lipids) [µM] | IC50 ([3]; [14C]acetate, 3 hr, read-out: IC50, inhibition of lipid synthesis, saponifiable lipids) [µM] | concentration of maximal effect on lipid synthesis ([3]; [14C]acetate, 3 hr) [µM] | potency relative to A769662 ([3]; similar inhibition with 3 μM C13 and 100 μM A769662) | fatty acid esterification [4] |
| --- | --- | --- | --- | --- | --- | --- | --- | --- |
| O=P(O)(O)c1ccc(-c2cc(O)on2)o1 [Compound C2, 5-(5-hydroxyl-isoxazol-3-yl)-furan-2-phosphonic acid] | essentially no effect | no significant cellular accumulation |  |  |  |  |  |  |
| CC(C)C(=O)OCOP(=O)(OCOC(=O)C(C)C)c1ccc(C2=NOC(=O)C2)o1 [Compound C13] |  |  | about 40% | 1.5 | 1.7 | 30 | ≈ 30 fold | inhibited |

— paper PMC4104029, “Mechanism of Action of Compound-13: An α1-Selective Small Molecule Activator of AMPK” (Chemistry & Biology, 2014)
